Experimental data reported in patent US12441695B2, “Substituted thiadiazinone dioxide and preparation method therefor, herbicidal composition, and application therefor” (Qingdao Kingagroot Chemical Compound Co., Ltd., priority 2019, dated 2025).

Legend:
[1] = system: gramineous weeds; conditions: in vivo; cited from earlier work
[2] = system: monocotyledonous and dicotyledonous weeds; test: Experiment on weeding effect in post-emergence stage (weeds); type: in vivo; conditions: 600 g/ha active ingredient plus water 450 kg/ha, 3 weeks after application, fresh weight control rate; for Amaranthus retroflexus activity level (growth control rate): fomesafen-resistant Amaranthus retroflexus
Summary of the method: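 Greenhouse pot-grown weeds and crops sprayed post-emergence 2–3 weeks after sowing with compound in acetone/Tween 80/water. Fresh-weight growth control scored after 3 weeks on a 0–5 scale (5: >85%, 0: <5%).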

[3] = system: major crops (wheat, corn, rice, soybean, cotton, oilseed rape, millet, sorghum); test: Experiment on weeding effect in post-emergence stage (crops); type: in vivo; conditions: 600 g/ha active ingredient plus water 450 kg/ha, 3 weeks after application; for corn plant damage level (growth control rate): crop corn; for rice plant damage level (growth control rate): crop rice; for soybean plant damage level (growth control rate): crop soybean
Summary of the method: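 Weed and crop seeds were sown in soil-filled pots, covered with 0.5–2 cm soil and grown in a greenhouse. Plants were sprayed 2–3 weeks after sowing using a spray tower, with compound dissolved in acetone plus Tween 80 and diluted in water. Effect was expressed as fresh-weight growth control rate.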

SMILES	effect on gramineous weeds [1]	Amaranthus retroflexus activity level (growth control rate) [2]	Digitaria sanguinalis activity level (growth control rate) [2]	Echinochloa crus-galli activity level (growth control rate) [2]	Setaria viridis activity level (growth control rate) [2]	corn plant damage level (growth control rate) [3]	rice plant damage level (growth control rate) [3]	soybean plant damage level (growth control rate) [3]
CC(C)N1C(=O)c2ccccc2NS1(=O)=O [bentazone]	ineffective							
CC(=O)N1c2c(Cl)cc(F)cc2C(=O)N(C(C)C)S1(=O)=O [Compound 152]		5 (Level 5: growth control rate is above 85%)	5 (Level 5: growth control rate is above 85%)	5 (Level 5: growth control rate is above 85%)	5 (Level 5: growth control rate is above 85%)	0 (Level 0: growth control rate is less than 5%)	0 (Level 0: growth control rate is less than 5%)	1 (Level 1: growth control rate is greater than or equal to 500 and less than 200%)
CC(=O)N1c2c(Br)cc(F)cc2C(=O)N(C(C)C)S1(=O)=O [Compound 154]		5 (Level 5: growth control rate is above 85%)	5 (Level 5: growth control rate is above 85%)	5 (Level 5: growth control rate is above 85%)	5 (Level 5: growth control rate is above 85%)	0 (Level 0: growth control rate is less than 5%)	0 (Level 0: growth control rate is less than 5%)	1 (Level 1: growth control rate is greater than or equal to 500 and less than 200%)
CC(C)N1C(=O)c2cc(F)ccc2N(C(C)OC(=O)OC2CCCCC2)S1(=O)=O (racemic) [Compound 194]		4 (Level 4: growth control rate is greater than or equal to 60% and less than 85%)				0 (Level 0: growth control rate is less than 5%)	0 (Level 0: growth control rate is less than 5%)	0 (Level 0: growth control rate is less than 5%)
C#CCN1c2ccc(F)cc2C(=O)N(C(C)C)S1(=O)=O [Compound 51]		5 (Level 5: growth control rate is above 85%)		3 (Level 3: growth control rate is greater than or equal to 40% and less than 60%)	3 (Level 3: growth control rate is greater than or equal to 40% and less than 60%)	0 (Level 0: growth control rate is less than 5%)	0 (Level 0: growth control rate is less than 5%)	0 (Level 0: growth control rate is less than 5%)
